Results from patent publication US10183950B2, “Thienopyrimidine inhibitors of atypical protein kinase C” (Cancer Research Technology Limited, priority 2011, dated 2019).

The compounds below were run against T1, full-length human PKCι (Homo sapiens, UniProt P41743) (assay: PKCι IC50 IMAP fluorescence polarisation assay, full-length enzyme). Conditions: full length PKCi at 15 μM ATP; read-out: IC50 in IMAP assay against full length PKCi.
T1 construct: Recombinant, full-length human PKCι expressed in Sf21 insect cells is also commercially available; purchased; host or cells: Sf21 insect cells
T1 sequence (P41743 1-596): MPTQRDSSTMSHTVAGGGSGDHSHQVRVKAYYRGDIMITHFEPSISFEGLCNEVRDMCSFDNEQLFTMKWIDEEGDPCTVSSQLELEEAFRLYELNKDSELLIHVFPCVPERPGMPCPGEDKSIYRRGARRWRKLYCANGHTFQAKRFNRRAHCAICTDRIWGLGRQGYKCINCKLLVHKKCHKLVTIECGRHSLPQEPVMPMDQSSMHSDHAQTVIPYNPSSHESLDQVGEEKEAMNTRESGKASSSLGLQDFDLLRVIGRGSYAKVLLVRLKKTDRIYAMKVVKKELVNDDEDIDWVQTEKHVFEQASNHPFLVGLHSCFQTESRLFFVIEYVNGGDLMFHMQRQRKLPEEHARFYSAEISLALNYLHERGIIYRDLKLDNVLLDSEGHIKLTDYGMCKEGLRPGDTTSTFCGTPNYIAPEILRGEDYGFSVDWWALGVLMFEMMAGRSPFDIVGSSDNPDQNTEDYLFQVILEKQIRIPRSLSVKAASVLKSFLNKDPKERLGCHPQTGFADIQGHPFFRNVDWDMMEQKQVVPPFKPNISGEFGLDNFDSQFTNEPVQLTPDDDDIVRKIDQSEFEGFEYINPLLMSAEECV
Type: biochemical
Procedure: Assays are based on the ability of PKCι to phosphorylate a commercially available peptide substrate in vitro. […] Recombinant, full-length human PKCι expressed in Sf21 insect cells is also commercially available. Recombinant, kinase-domain human PKCι is expressed and purified in-house.
The procedure below explains how dose response curves for inhibitors of PKCι are obtained.
Compounds to be tested are dissolved in 100% DMSO. […] 1 μl is plated into 384 well black low-binding flat bottomed assay plates which are used immediately. Dilutions and additions of compound to assay plates are carried out using Matrix WellMate® and Matrix PlateMate® Plus liquid handling systems.
The final concentration of peptide substrate in the assay is 100 nM. […] Relevant controls are included, namely no compound and no enzyme. […] The reaction is allowed to incubate for 60 minutes at room temperature, before the reaction is stopped and developed by the addition of 20 μl IMAP™ development reagent (Molecular Devices). IMAP development reagent consists of 0.25% (v/v) IMAP progressive binding reagent, 17% (v/v) IMAP progressive binding buffer A and 3% (v/v) IMAP progressive binding buffer B. The plates are then incubated for 2 hours at room temperature before being read using an appropriate plate reader, for example a Molecular Devices HT Analyst or a BMG Pherastar.

Structure (SMILES)	IC50
N[C@@H](CNc1nc(-c2ccncc2)nc2c(-c3ccc(Br)cc3)csc12)Cc1ccccc1 [compound 327, (R)-N*1*-[7-(4-Bromo-phenyl)-2-pyridin-4-yl-thieno[3,2-d]pyrimidin-4-yl]-3-phenyl-propane-1,2-diamine]	1000 to 10000 nM
Cc1sc2c(N[C@H]3CCNC3)nc(-c3ccncc3)nc2c1Br [compound 332, (7-Bromo-6-methyl-2-pyridin-4-yl-thieno[3,2-d]pyrimidin-4-yl)-(S)-pyrrolidin-3-yl-amine]	1000 to 10000 nM
N[C@H](CNc1nc(-c2ccncc2)nc2c(C#CCCCO)csc12)Cc1ccccc1 [compound 535, 5-[4-((S)-2-Amino-3-phenyl-propylamino)-2-pyridin-4-yl-thieno[3,2-d]pyrimidin-7-yl]-pent-4-yn-1-ol]	1000 to 10000 nM
CC(C)NC(=O)c1csc2c(NC[C@@H](N)Cc3ccccc3)nc(-c3ccncc3)nc12 [compound 555, 4-((S)-2-Amino-3-phenyl-propylamino)-2-pyridin-4-yl-thieno[3,2-d]pyrimidine-7-carboxylic acid isopropylamide]	1000 to 10000 nM
c1cc(-c2nc(N[C@@H]3CCNC3)c3sccc3n2)cc(Nc2ccc(N3CCCCC3)cc2)n1 [compound 608, {2-[2-(4-Piperidin-1-yl-phenylamino)-pyridin-4-yl]-thieno[3,2-d]pyrimidin-4-yl}-(R)-pyrrolidin-3-yl-amine]	100 to 1000 nM
Cc1c(-c2ccnn2C)sc2c(N[C@@H]3CCNC3)nc(-c3ccncc3)nc12 [compound 469, [7-Methyl-6-(2-methyl-2H-pyrazol-3-yl)-2-pyridin-4-yl-thieno[3,2-d]pyrimidin-4-l]-(R)-pyrrolidin-3-yl-amine]	10000 to 40000 nM
N#Cc1csc2c(NC[C@@H](N)Cc3ccccc3)nc(-c3ccncc3)nc12 [compound 560, 4-((S)-2-Amino-3-phenyl-propylamino)-2-pyridin-4-yl-thieno[3,2-d]pyrimidine-7-carbonitrile]	< 100 nM
NC(CNc1nc(-c2ccncc2F)nc2c(-c3ccco3)csc12)Cc1ccccc1 (stereo in doubt) [compound 432, (R)-N*1*-[2-(3-Fluoro-pyridin-4-yl)-7-furan-2-yl-thieno[3,2-d]pyrimidin-4-yl]-3-phenyl-propane-1,2-diamine]	100 to 1000 nM
c1cc(-c2nc(N[C@@H]3CCNC3)c3sccc3n2)cc(Nc2ccc(CN3CCCC3)cc2)n1 [compound 611, (R)-Pyrrolidin-3-yl-{2-[2-(4-pyrrolidin-1-ylmethyl-phenylamino)-pyridin-4-yl]-thieno[3,2-]pyrimidin-4-yl}-amine]	1000 to 10000 nM
Nc1csc2c(NC[C@@H](N)Cc3ccccc3)nc(-c3ccncc3)nc12 [compound 566, N*4*-((S)-2-Amino-3-phenyl-propyl)-2-pyridin-4-yl-thieno[3,2-d]pyrimidine-4,7-diamine]	100 to 1000 nM
CC(C)(C)c1sc2c(NCCN)nc(-c3ccncc3)nc2c1Br [compound 333, N*1*-(7-Bromo-6-tert-butyl-2-pyridin-4-yl-thieno[3,2-d]pyrimidin-4-yl)-ethane-1,2-diamine]	10000 to 40000 nM
CC(C)[C@](C)(O)C#Cc1csc2c(NC[C@@H](N)Cc3ccccc3)nc(-c3ccncc3)nc12 [compound 524, (S)-1-[4-((S)-2-Amino-3-phenyl-propylamino)-2-pyridin-4-yl-thieno[3,2-d]pyrimidin-7-yl]-3,4-dimethyl-pent-1-yn-3-ol]	1000 to 10000 nM
COc1ccc(C(F)(F)F)cc1-c1c(C)sc2c(NC[C@@H](N)Cc3ccccc3)nc(-c3ccncc3)nc12 [compound 464, (S)-N*1*-[7-(2-Methoxy-5-trifluoromethyl-phenyl)-6-methyl-2-pyridin-4-yl-thieno[3,2-d]pyrimidin-4-yl]-3-phenyl-propane-1,2-diamine]	10000 to 40000 nM
N[C@H](CNc1nc(-c2ccncc2)nc2c(CCC3CC3)csc12)Cc1ccccc1 [compound 563, (S)—N*1*-[7-(2-Cyclopropyl-ethyl)-2-pyridin-4-yl-thieno[3,2-d]pyrimidin-4-yl]-3-phenyl-propane-1,2-diamine]	1000 to 10000 nM
N[C@H](CNc1nc(-c2ccncc2)nc2c(-c3cn[nH]c3)csc12)Cc1ccccc1 [compound 393, (S)-3-Phenyl-N*1*-[7-(1H-pyrazol-4-yl)-2-pyridin-4-yl-thieno[3,2-d]pyrimidin-4-yl]-propane-1,2-diamine]	100 to 1000 nM
CC(C)(C)c1ccc(-c2cc3nc(-c4ccncc4)nc(N4CCNCC4)c3s2)cc1 [compound 357, 6-(4-tert-Butyl-phenyl)-4-piperazin-1-yl-2-pyridin-4-yl-thieno[3,2-d]pyrimidine]	10000 to 40000 nM
CCc1cc(-c2csc3c(NC[C@@H](N)Cc4ccccc4)nc(-c4ccncc4)nc23)[nH]n1 [compound 571, (S)-N*1*-[7-(5-Ethyl-2H-pyrazol-3-yl)-2-pyridin-4-yl-thieno[3,2-d]pyrimidin-4-yl]-3-phenyl-propane-1,2-diamine]	< 100 nM
NCc1coc(-c2csc3c(NC[C@@H](N)Cc4ccccc4)nc(-c4ccncc4F)nc23)c1 [compound 435, S)-N*1*-[7-(4-Aminomethyl-furan-2-yl)-2-(3-fluoro-pyridin-4-yl)-thieno[3,2-d]pyrimidin-4-yl]-3-phenyl-propane-1,2-diamine]	1000 to 10000 nM
N[C@H](CNc1nc(-c2ccncc2)nc2c(C#CC3(O)CCCC3)csc12)Cc1ccccc1 [compound 528]	< 100 nM
c1ccc(Nc2csc3c(N[C@@H]4CCNC4)nc(-c4ccncc4)nc23)nc1 [compound 487, 2-Pyridin-4-yl-N*7*- pyridin-2-yl-N*4*-(R)-pyrrolidin-3-yl-thieno[3,2-d]pyrimidine-4,7-diamine]	1000 to 10000 nM
Cc1noc(C)c1-c1csc2c(NC[C@@H](N)Cc3ccccc3)nc(-c3ccncc3)nc12 [compound 392, N*1*-[7-(3,5-Dimethyl-isoxazol-4-yl)-2-pyridin-4-yl-thieno[3,2-d]pyrimidin-4-yl]-3-phenyl-propane-1,2-diamine]	1000 to 10000 nM
CCCNC(=O)c1csc2c(NC[C@@H](N)Cc3ccccc3)nc(-c3ccncc3)nc12 [compound 551, 4-((S)-2-Amino-3-phenyl-propylamino)-2-pyridin-4-yl-thieno[3,2-d]pyrimidine-7-carboxylic acid propylamide]	100 to 1000 nM
N[C@H](CNc1nc(-c2ccncc2)nc2c(C#CC3CC3)csc12)Cc1ccccc1 [compound 512, (S)-N*1*-(7-Cyclopropylethynyl-2-pyridin-4-yl-thieno[3,2-d]pyrimidin-4-yl)-3-phenyl-propane-1,2-diamine]	< 100 nM
CN(C)C(=O)Nc1cc(-c2nc(N[C@@H]3CCNC3)c3sccc3n2)ccn1 [compound 581, 1,1-Dimethyl-3-{4-[4-((R)-pyrrolidin-3-ylamino)-thieno[3,2-d]pyrimidin-2-yl]-pyridin-2-yl}-urea]	1000 to 10000 nM
N[C@H](CNc1nc(-c2ccncc2)nc2c(Br)csc12)Cc1ccccc1 [compound 336, (S)—N*1*-(7-Bromo-2-pyridin-4-yl-thieno[3,2-d]pyrimidin-4-yl)-3-phenyl-propane-1,2-diamine]	< 100 nM
Cc1cc(-c2csc3c(NC[C@@H](N)Cc4ccccc4)nc(-c4ccncc4)nc23)n[nH]1 [compound 569, (S)-N*1*-[7-(5-Methyl-1H-pyrazol-3-yl)-2-pyridin-4-yl-thieno[3,2-d]pyrimidin-4-yl]-3-phenyl-propane-1,2-diamine]	< 100 nM

Same assay, conditions: full length PKCi at 15 μM ATP; read-out: IC50 in IMAP assay against full length PKCi (Activity)

Structure (SMILES)	IC50
N[C@@H](CNc1nc(-c2ccncc2)nc2sc3c(c12)CCCCC3)Cc1ccccc1 [compound 70, (R)-3-Phenyl-N*1*-(2-pyridin-4-yl-6,7,8,9-tetrahydro-5H-10-thia-1,3-diaza-benzo[a]azulen-4-yl)-propane-1,2-diamine]	1000 to 10000 nM
c1cc(-c2nc(NC[C@H]3CCCCN3)c3c4c(sc3n2)CCCC4)ccn1 [compound 62, (R)-1-Piperidin-2-ylmethyl-(2-pyridin-4-yl-5,6,7,8-tetrahydro-benzo[4,5]thieno[2,3-d]pyrimidin-4-yl)-amine]	1000 to 10000 nM
N[C@H](CNc1nc(-c2ccncc2)nc2sc3c(c12)CCCC3)Cc1ccccc1F [compound 51, (S)-3-(2-Fluoro-phenyl)-N*1*-(2-pyridin-4-yl-5,6,7,8-tetrahydro-benzo[4,5]thieno[2,3-d]pyrimidin-4-yl)-propane-1,2-diamine]	100 to 1000 nM
